One block for each compound: values may come before it.
What was measured:
myocardial cells [1] = assay: SOD activity (Hydroxylamine method) in hypoxia/reoxygenation injured myocardial cells; type: cell-based, Sprague-Dawley (SD) rat
Experimental: Myocardial cell samples were obtained from the same procedure of Example 1, the experiment groups were divided and hypoxia/reoxygenation experiments were performed on Control group, Vehicle group, SAC and analogue groups, same as the experiments in Example 1 with the same dosages and same conditions. Myocardial cells were obtained from each sample (10^6 myocardial cells/sample) from the Control group, Vehicle group, SAC and analogue groups. The cells were lysed under sterilized condition, and SOD (superoxide dismutase) activities in each sample of the cells were determined by Hydroxylamine method (a conventional method well known in the arts) using each microgram of protein per 1 milliliter reaction solution inhibits SOD activity to its 50% of original activity, in which the amount of SOD used in the reaction as standard of 1 unit of SOD activity.

myocardial cells [2] = assay: Lipid peroxidation (MDA, TBA) in hypoxia/reoxygenation injured myocardial cells; type: cell-based, Sprague-Dawley (SD) rat; details: 10^−5 mol/L
Experimental: Myocardial cell samples were obtained from the same procedure of Example 1, the experiment groups were divided and hypoxia/reoxygenation experiments were performed on Control group, Vehicle group, SAC and analogue groups, same as the experiments in Example 1 with the same dosages and same conditions. Myocardial cells were obtained from each sample (10^6 myocardial cells/sample) from the Control group, Vehicle group, SAC and analogue groups. The cells were lysed under sterilized condition, and lipid peroxidation experiments on the samples were performed. Since oxygen free radical attacks poly unsaturated fatty acid in biomembrane, inducing lipid peroxidation and producing MDA (malondialdehyde). MDA can react with thiobarbituric acid (TBA), forms red product, which can be detected in spectrophotometer at 532 nm. […] The inhibition effect could be reversed by PAG.

H9c2 cells [3] = assay: H9c2 cell viability by MTT method after H2O2 injury; type: cell-based; details: PAG group, PAG 10^−4 mol/L
Experimental: (§1) H9c2 cells were cultured in DMEM with 10% of fetal bovine serum, 37 degree C. and 5% CO2 incubator. The monolayer culture was split at a 1:4 ratio or harvested to perform experiments when confluence was 70-80%. Adjust the density of the cells to […] and inoculate the cells on a 96 well plate.
Control group, no SAC analogues treatment, no H2O2 injured process.
(§2) H2O2 injury (Model) group, no SAC analogues treatment, under H2O2 200 μmol/L for 2 hours.
(§3) PAG group, PAG 10^−4/mol/L
(§4) SPRC dosage groups: SPRC 1E-7, SPRC 1E-6, SPRC 1E-5, the cell groups were treated with SPRC dosages of 10^−7 mol/L, 10^−6 mol/L, 10^−5 mol/L respectively.
(§5) SPRC dosage+PAG groups: the cell group was treated with SPRC dosages of 10^−5 mol/L and PAG 10^−4 mol/L.
H9c2 cell viability was assessed by MTT method. […] PAG is able to block the effect of SPRC.

H9c2 cells [4] = assay: LDH leakage of H9c2 cells injured by H2O2; type: cell-based; details: PAG group, PAG 10^−4 mol/L
Experimental: as §1, §2, §3, §4, §5
The cell samples (10^6 cells/sample) from each group were lysed under sterilized condition, and LDH contents in each samples were tested by pyruvic acid production method.

H9c2 cells [5] = assay: Mn-SOD activity of H9c2 cells injured by H2O2; type: cell-based; details: PAG group, PAG 10^−4 mol/L
Experimental: (§6) H9c2 cells were cultured same as Example 12, the cells were then divided into the groups same as Example 12.
(§7) The cells were lysed under sterilized condition, and lipid peroxidation experiments on the samples were performed. […] The effect of SPRC could be blocked by PAG, indicating SPRC mediates its effect on H9c2 cell by way of endogenous H2S.

H9c2 cells [6] = assay: MDA content of H9c2 cells injured by H2O2; type: cell-based; details: PAG group, PAG 10^−4 mol/L
Experimental: as §6, §7

rats following MI injury [7] = assay: Infarct size after TTC staining in rats following MI injury; type: in vivo, SD rats; details: 50 mg/Kg/day intraperitoneal, 7 days before and 2 days after ligation, 48 h after surgery, saline 36.0±1.3%
Experimental: (§8) SPRC and SAC were dissolved in saline (vehicle). Male SD rats (weight 200-250 g) were randomly assigned to […] treatment groups: group (1) Sham group: Sham-treated with saline (n=4), (2) Sham+SPRC group: Sham-treated with SPRC (50 mg/Kg/day) (n=4), (3) Sham+SAC group: Sham-treated with SAC (50 mg/Kg/day) (n=4), (4) MI group: MI treated with saline (n=8), (5) MI+SPRC group: MI treated with SPRC (50 mg/Kg/day) (n=8), (6) MI+SAC group: MI treated with SAC (50 mg/Kg/day) (n=8). Rats were pre-treated for seven days with each SAC analogues respectively via an intraperitoneal injection once daily before they were used for MI model studies. […] Briefly, the rats were anesthetized with 7% choral hydrate (60 mg/kg intraperitoneal injection), endotracheally intubated and mechanically ventilated with room air, respiratory rate 100 breaths/min, tidal volume 2.5 ml with a rodent ventilator (DHX-150, China). ECG was recorded in the anaesthetized animal for a period of one minute using the Animal Mflab200 amplifier (Produced in China). A left thoracotomy was performed and the third intercostal space was exposed. […] Then incisions were sutured and the chests were closed. […] Forty eight hours after the surgery, ECG was recorded for each rat in each group. […] To evaluate the effect of SPRC and SAC on MI, infarct size were measured after TTC staining (FIG. 12).

rats following MI injury [8] = assay: ECG in rats following MI injury; type: in vivo, SD rats; details: 50 mg/Kg/day, day 10, 48 hr after the induction of MI
Experimental: as §8

rats following MI injury [9] = assay: Serum LDH in rats (sham or MI); type: in vivo, SD rats; details: Sham rats; 50 mg/Kg/day intraperitoneal
Experimental: (§9) Animals were assigned and prepared the same as in Example 7, and dosages of SPRC and SAC were used the same in this example as in Example 7.
(§10) Serum CK levels were detected with diagnostic kit (NJBI, China) according to the instructions. LDH were determined calorimetrically with a spectrophotometer. Lipid peroxidation was measured in terms of MDA content using the thiobarbituric acid (TBA) assay. […] With regard to lipid peroxidation, the levels of MDA in MI groups increased at 48 h after myocardial infarction. […] (FIG. 14)

rats following MI injury [10] = assay: Serum CK in rats (sham or MI); type: in vivo, SD rats; details: Sham rats; 50 mg/Kg/day intraperitoneal
Experimental: as §9, §10

rats following MI injury [11] = assay: MDA content (TBA assay) in rats (sham or MI); type: in vivo, SD rats; details: Sham rats; 50 mg/Kg/day intraperitoneal
Experimental: as §9, §10

rats following MI injury [12] = assay: SOD activity in plasma of rats (sham or MI); type: in vivo, SD rats; details: 50 mg/Kg/day intraperitoneal
Experimental: as §9, §10

rats following MI injury [13] = assay: Plasma H2S levels in rats (sham or MI); type: in vivo, SD rats; details: 50 mg/Kg/day intraperitoneal
Experimental: as §9
(§11) The plasma levels of H2S in each treatment group were determined since CSE mediates the endogenous production of H2S in mammals. Plasma H2S concentrations in MI group rats at 48 h after MI induction were 34.7±5.6 μM (n=8). […] Left ventricular CSE activity was analyzed in the tissue homogenates from each treatment group (n=6). CSE activity was 1.58±0.15 μmol/g protein/hr in left the ventricular tissues in MI group and 2.19±0.32 μmol/g protein/hr in the MI+SAC treated rats.

CSE [14] = target: T1, CSE (Rattus norvegicus, UniProt P18757); assay: Left ventricular CSE activity in tissue homogenates of rats; type: in vivo, SD rats; details: 50 mg/Kg/day; for CSE activity: left ventricle
T1 construct: from tissue; host or cells: rat left ventricle (homogenate), myocardial infarction model
Experimental: as §9, §11
SPRC administered rats had the highest CSE activity of 2.58±0.07 μmol/g protein/hr (p<0.01) (FIG. 15B). This observation correlated with the observed increases in H2S concentrations in the same treatment groups.

Bax = assay: Western blot of Bax protein in left ventricle; type: in vivo, SD rats; details: MI rats, 50 mg/Kg/day, p<0.01
Source text: as §9

Bcl-2 = assay: Western blot of Bcl-2 protein in left ventricle; type: in vivo, SD rats; details: MI rats, 50 mg/Kg/day, p<0.01
Source text: as §9

CSE [15] = assay: Western blot of CSE protein in left ventricle; type: in vivo, SD rats; details: MI rats, 50 mg/Kg/day, p<0.01
Source text: as §9

CSE mRNA = assay: RT-PCR of CSE mRNA in left ventricle; type: in vivo, SD rats; details: MI rats, 50 mg/Kg/day
Source text: as §9
(§12) To further verify the effects of SPRC and SAC, the expressions of Bcl-2, Bax and CSE mRNA were accessed by RT-PCR (FIG. 17). An isoform of the CSE gene was detected (GenBank; access no. AY641456). The relative amounts of CSE mRNA in Left ventricular subjected to MI were increase 3.3-fold and 1.5-fold following SPRC and SAC exposure as compared to the MI group.

Bax mRNA = assay: RT-PCR of Bax mRNA in left ventricle; type: in vivo, SD rats; details: MI rats, 50 mg/Kg/day, p<0.05
Source text: as §9, §12

Bcl-2 mRNA = assay: RT-PCR of Bcl-2 mRNA in left ventricle; type: in vivo, SD rats; details: MI rats, 50 mg/Kg/day, p>0.05
Source text: as §9, §12

T1 sequence (P18757 whole entry): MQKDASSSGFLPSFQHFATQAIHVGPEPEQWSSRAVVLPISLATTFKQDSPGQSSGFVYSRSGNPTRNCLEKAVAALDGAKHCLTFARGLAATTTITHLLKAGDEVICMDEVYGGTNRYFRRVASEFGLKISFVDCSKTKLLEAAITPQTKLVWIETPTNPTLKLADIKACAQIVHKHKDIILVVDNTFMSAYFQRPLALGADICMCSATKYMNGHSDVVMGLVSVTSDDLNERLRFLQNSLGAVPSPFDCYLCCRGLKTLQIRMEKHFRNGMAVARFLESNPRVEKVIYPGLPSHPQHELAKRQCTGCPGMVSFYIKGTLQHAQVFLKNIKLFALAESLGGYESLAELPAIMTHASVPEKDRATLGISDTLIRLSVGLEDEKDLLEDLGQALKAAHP

SMILES: CCCSC[C@H](N)C(=O)O [SPC, S-propyl-L-cysteine]
Cu—Zn SOD activity in cytoplasm (myocardial cells [1]; 10^−5 mol/L): able to elevate
effect of PAG on elevating Cu—Zn SOD activity (myocardial cells [1]; with PAG): PAG also reversed the effect
lipid peroxidation (MDA) (myocardial cells [2]): inhibited

SMILES: CCSC[C@H](N)C(=O)O [SEC, S-ethyl-L-cysteine]
Mn-SOD activity in mitochondria (myocardial cells [1]; 10^−5 mol/L): able to elevate
effect of PAG on elevating Mn-SOD activity (myocardial cells [1]; with PAG): PAG also reversed
lipid peroxidation (MDA) (myocardial cells [2]): inhibited

SMILES: C#CCC(N)C(=O)O (racemic) [PAG, DL-propargylglycine, reference compound]
H9c2 Cell Survive (H9c2 cells [3]): 58.9 ± 1.2%
LDH Leakage (H9c2 cells [4]): 63.4 ± 1.2%
Mn-SOD Activity (H9c2 cells [5]): 7.57 ± 0.83 U/mgprot
MDA Content (H9c2 cells [6]): 2.71 ± 0.26 nmol/mgprot

SMILES: CCCCCSC[C@H](N)C(=O)O [SPEC, S-pentyl-L-cysteine]
Cu—Zn SOD activity in cytoplasm (myocardial cells [1]; 10^−5 mol/L): able to elevate
effect of PAG on elevating Cu—Zn SOD activity (myocardial cells [1]; with PAG): PAG also reversed the effect

CSE activity (CSE [14]; MI rats): 2.19 ± 0.32 μM/mgprot
Left ventricular CSE activity (CSE [14]; MI rats, left ventricular tissue homogenates, MI group 1.58±0.15): 2.19±0.32 μmol/g protein/hr
CSE activity (CSE [14]; Sham rats): 2.31 ± 0.24 μM/mgprot
SMILES: C=CCSC[C@H](N)C(=O)O [SAC, S-Allyl-Cysteine]
infarct size/total area of myocardium (rats following MI injury [7]): 24.9±1.9%
ST-segment elevation in ECG (rats following MI injury [8]): less elevated ST-segment
LDH (rats following MI injury [9]): 2599 ± 212 U/L
CK (rats following MI injury [10]): 0.250 ± 0.019 U/ml
MDA (rats following MI injury [11]): 3.57 ± 0.31 nmol/mL
SOD (rats following MI injury [12]; MI rats, 48 h after MI): 107.1 ± 5.4 U/ml
SOD (rats following MI injury [12]; Sham rats): 159.8 ± 4.8 U/ml
H2S concentration in plasma (rats following MI injury [13]; MI rats, 48 h after MI induction, 50 mg/kg/day): 61.1 ± 3.6 µM
H2S concentration in plasma (rats following MI injury [13]; Sham rats): 65.2 ± 4.4 µM
Bax protein levels (Bax): down-regulated
Bcl-2 protein expression (Bcl-2): up-regulated
CSE protein expression (CSE [15]): up-regulated
relative amounts of CSE mRNA, increase as compared to the MI group (CSE mRNA): 1.5 fold
Bax gene expression (Bax mRNA): down regulated
Bcl-2 gene expression (Bcl-2 mRNA): no significant differences

SMILES: CCCCSC[C@H](N)C(=O)O [SBC, S-butyl-L-cysteine]
Cu—Zn SOD activity in cytoplasm (myocardial cells [1]; 10^−5 mol/L): able to elevate
effect of PAG on elevating Cu—Zn SOD activity (myocardial cells [1]; with PAG): PAG also reversed the effect

From patent publication US8623919B2, “Method of synthesizing S-allyl-cysteine analogues and their therapeutic application in treating myocardial infarction” (Fudan University, priority 2007, dated 2014)
